From patent US9487504B2, “Imidazolyl analogs as syk inhibitors” (Merck Sharp & Dohme Corp., priority 2012, dated 2016) come the findings set out here.

The target of the experiment is T1, recombinant human GST-Syk (Homo sapiens, UniProt P43405).
T1 construct: purchased Carna Biosciences 08-176
The experiment is described as follows: Homogeneous Time-Resolved Fluorescence (HTRF) assay for the recombinant human Syk enzyme. Type of experiment: biochemical. The note with it: ATP 25 μM, 10-dose titration. In outline:
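Recombinant GST-hSyk ([…]) was preincubated 10 min at room temperature with inhibitor (0.1% DMSO) in Tris pH 7.5, then reacted for 45 min with 250 nM biotinylated peptide, 5 mM Mg and 25 μM ATP. Phosphorylation was detected by HTRF (Eu-anti-phosphotyrosine/SA-APC). IC50 was derived from a 10-dose titration (10 μM–0.508 nM) with a 4-parameter fit.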

Each structure is given as a SMILES string. Read-outs that look alike come from different tables or passages of the source.

Take `O=C(c1cn(-c2cccc(Nc3nccc(C(F)(F)F)n3)c2)cn1)N1CCCC1` [Example 70, Pyrrolidin-1-yl[1-(3-{[4-(trifluoromethyl)pyrimidin-2-yl]amino}phenyl)-1H-imidazol-4-yl]methanone]: the IC50 (read-out: rhSYK Activity) was 100 to 1000 nM.

On to `Cc1cc(Nc2nccc(C(F)(F)F)n2)cc(-n2cnc(-c3ccc(C(=O)O)cc3)c2)c1` [Example 71, 4-[1-(3-methyl-5-{[4-(trifluoromethyl)pyrimidin-2-yl]amino}-phenyl)-1H-imidazol-4-yl]benzoic acid], for which the IC50 runs as follows: (read-out: rhSYK Activity) at most 100 nM; (read-out: rhSYK IC50) 1.68 nM.

Regarding `Cc1cc(Nc2nccc(C)n2)cc(-n2cnc3cc(C(=O)O)ccc32)c1` [Example 72, 1-{3-methyl-5-[(4-methylpyrimidin-2-yl)amino]phenyl}-1H-benzimidazole-5-carboxylic acid], the IC50 (read-out: rhSYK Activity) was 100 to 1000 nM.

Take `COC(=O)c1ccc2c(c1)ncn2-c1cc(C)cc(Nc2nccc(C)n2)c1` [Example 73, Methyl 1-{3-methyl-5-[(4-methyl-pyrimidin-2-yl)amino]phenyl}-1H-benzimidazole-5-carboxylate]: where the note is “read-out: rhSYK Activity”, the IC50 is at most 100 nM.

As for `Cc1cc(Nc2cc(C(F)(F)F)ccn2)nc(-n2cnc(CCC(=O)O)c2)c1` [Example 74, 3-[1-(4-methyl-6-{[4-(trifluoromethyl)-pyridin-2-yl]amino}-pyridin-2-yl)-1H-imidazol-4-yl]-propanoic acid], the IC50 (read-out: rhSYK Activity) fell in the range of 100 to 1000 nM.

On to `Cc1cc(Nc2nccc(C3CC3)n2)cc(-n2cnc(CCC(=O)O)c2)c1` [Example 75, 3-(1-{3-[(4-cyclopropylpyrimidin-2-yl)amino]-5-methylphenyl}-1H-imidazol-4-yl)propanoic acid], for which the IC50 (read-out: rhSYK Activity) was at most 100 nM.

As for `Cc1cc(Nc2nccc(C(F)(F)F)n2)cc(-n2cnc(CCC(=O)O)c2)c1` [Example 76, 3-[1-(3-methyl-5-{[4-(trifluoromethyl)pyrimidin-2-yl]amino}-phenyl)-1H-imidazol-4-yl]propanoic acid], under “read-out: rhSYK Activity”, the IC50 is at most 100 nM.

As for `Cc1cc(Nc2nccc(C(F)(F)F)n2)cc(-n2cnc(CC#N)c2)c1` [Example 77, [1-(3-methyl-5-{[4-(trifluoromethyl)pyrimidin-2-yl]amino}-phenyl)-1H-imidazol-4-yl]acetonitrile], the IC50 (read-out: rhSYK Activity) is at most 100 nM.

As to `Cc1cc(Nc2nccc(C(F)(F)F)n2)cc(-n2cnc(C(=O)O)c2)c1` [Example 78, 1-(3-methyl-5-{[4-(trifluoromethyl)-pyrimidin-2-yl]amino}-phenyl)-1H-imidazole-4-carboxylic acid], for the setting “read-out: rhSYK Activity”, the IC50 is at most 100 nM.

In the case of `Nc1cc(Nc2cc(Cl)ccn2)nc(-n2cnc(C(O)(C3CC3)C3CC3)c2)c1` [Example 79, (1-{4-amino-6-[(4-chloropyridin-2-yl)amino}pyridin-2-yl}-1H-imidazol-4-yl)(dicyclopropyl)methanol], the IC50 (read-out: rhSYK Activity) is at most 100 nM.

`Cc1cc(Nc2cc(Cl)ccn2)nc(-n2cnc(C(O)(C3CC3)C3CC3)c2)c1` [Example 80, (1-{6-[(4-chloropyridin-2-yl)amino]-4-methylpyridin-2-yl}-1H-imidazol-4-yl)(dicyclopropyl)-methanol]: under “read-out: rhSYK Activity”, the IC50 was at most 100 nM.

Take `OC(c1cn(-c2cccc(Nc3cc(Cl)ccn3)n2)cn1)(C1CC1)C1CC1` [Example 81, (1-{6-[(4-chloropyridin-2-yl)amino]pyridin-2-yl}-1H-imidazol-4-yl)(dicyclopropyl)-methanol]: under “read-out: rhSYK Activity”, the IC50 is at most 100 nM.

For the compound `OC(c1cn(-c2cccc(Nc3nccc(C(F)(F)F)n3)c2)cn1)(C1CC1)C1CC1` [Example 82, dicyclopropyl[1-(3-{[4-(trifluoromethyl)-pyrimidin-2-yl]amino}phenyl)-1H-imidazol-4-yl]methanol], under “read-out: rhSYK Activity”, the IC50 is at most 100 nM.

For `OC(c1cn(-c2cccc(Nc3cc(C(F)(F)F)ccn3)n2)cn1)(C1CC1)C1CC1` [Example 83, dicyclopropyl[1-(6-{[4-(trifluoromethyl)-pyridin-2-yl]amino}pyridin-2-yl)-1H-imidazol-4-yl]methanol], the IC50 (read-out: rhSYK Activity) is at most 100 nM.

Turning to `Nc1cc(Nc2cc(C(F)(F)F)ccn2)nc(-n2cnc(C(O)(C3CC3)C3CC3)c2)c1` [Example 84], the IC50 (read-out: rhSYK Activity) was at most 100 nM.

On to `COC(=O)c1cn(-c2cc(N)cc(Nc3cc(C(F)(F)F)ccn3)n2)cn1` [Example 85, Methyl 1-(4-amino-6-{[4-(trifluoromethyl)-pyridin-2-yl]amino}-pyridin-2-yl)-1H-imidazole-4-carboxylate], for which the IC50 (read-out: rhSYK Activity) is at most 100 nM.

For `Cc1ccnc(Nc2cc(C)cc(-n3cnc(C(O)(C4CC4)C4CC4)c3)n2)c1` [Example 86, dicyclopropyl(1-{4-methyl-6-[(4-methylpyridin-2-yl)amino]pyridin-2-yl}-1H-imidazol-4-yl)methanol], for the setting “read-out: rhSYK Activity”, the IC50 is at most 100 nM.

As to `Cc1ccnc(Nc2cc(C)cc(-n3cnc(C(C)(C)O)c3)n2)c1` [Example 87, 2-(1-{4-methyl-6-[(4-methylpyridin-2-yl)amino]pyridin-2-yl}-1H-imidazol-4-yl)propan-2-ol], the IC50 (read-out: rhSYK Activity) was at most 100 nM.

Consider `Cc1cc(Nc2nccc(C(F)(F)F)n2)cc(-n2cnc(C(=O)N3CCCC3)c2)c1` [Example 88, N-{3-methyl-5-[4-(pyrrolidin-1-ylcarbonyl)-1H-imidazol-1-yl]phenyl}-4-(trifluoromethyl)pyrimidin-2-amine], for which the IC50 (read-out: rhSYK Activity) is at most 100 nM.

As to `Cc1cc(Nc2nccc(C(F)(F)F)n2)cc(-n2cnc(C(=O)NC(C)C)c2)c1` [Example 89, N-(1-methylethyl)-1-(3-methyl-5-{[4-(trifluoromethyl)pyrimidin-2-yl]amino}-phenyl)-1H-imidazole-4-carboxamide], the IC50 (read-out: rhSYK Activity) lay in the range of 100 to 1000 nM.

`CC(C)(O)c1cn(-c2cc(Cl)cc(Nc3cc(C(F)(F)F)ccn3)n2)cn1` [Example 90, 2-[1-(4-chloro-6-{[4-(trifluoromethyl)pyridin-2-yl]amino}pyridin-2-yl)-1H-imidazol-4-yl]propan-2-ol]: the IC50 (read-out: rhSYK Activity) was at most 100 nM.

With `CC(C)(O)c1cn(-c2cc(C(F)(F)F)cc(Nc3cc(C(F)(F)F)ccn3)n2)cn1` [Example 91, 2-{1-[4-(trifluoro-methyl)-6-{[4-(trifluoromethyl)-pyridin-2-yl]amino}-pyridin-2-yl]-1H-imidazol-4-yl}propan-2-ol], the IC50 (read-out: rhSYK Activity) lay in the range of 100 to 1000 nM.

For `Cc1cc(Nc2cc(C(F)(F)F)ccn2)nc(-n2cnc(C(C)(C)O)c2)c1` [Example 92, 2-[1-(4-methyl-6-{[4-(trifluoromethyl)pyridin-2-yl]amino}pyridin-2-yl)-1H-imidazol-4-yl]propan-2-ol], for the setting “read-out: rhSYK Activity”, the IC50 was at most 100 nM.

In the case of `COC(=O)c1cn(-c2cc(C)cc(Nc3cc(C(F)(F)F)ccn3)n2)cn1` [Example 93, Methyl 1-(4-methyl-6-{[4-(trifluoromethyl)-pyridin-2-yl]amino}-pyridin-2-yl)-1H-imidazole-4-carboxylate], where the note is “read-out: rhSYK Activity”, the IC50 was at most 100 nM.

Turning to `CC(C)(O)c1cn(-c2cccc(Nc3cc(C(F)(F)F)ccn3)n2)cn1` [Example 94, 2-[1-(6-{[4-(trifluoromethyl)-pyridin-2-yl]amino}-pyridin-2-yl)-1H-imidazol-4-yl]propan-2-ol], the IC50 (read-out: rhSYK Activity) is at most 100 nM.

For the compound `Cc1cc(Nc2cc(Cl)ccn2)nc(-n2cnc(C(C)(C)O)c2)c1` [Example 95, 2-(1-{6-[(4-chloropyridin-2-yl)amino]-4-methylpyridin-2-yl}-1H-imidazol-4-yl)propan-2-ol], the IC50 (read-out: rhSYK Activity) was at most 100 nM.

In the case of `COC(=O)c1cn(-c2cccc(Nc3cc(C(F)(F)F)ccn3)n2)cn1` [Example 96, Methyl 1-(6-{[4-(trifluoromethyl)pyridin-2-yl]amino}pyridin-2-yl)-1H-imidazole-4-carboxylate], the IC50 (read-out: rhSYK Activity) was at most 100 nM.

Take `COC(=O)c1cn(-c2cc(C)cc(Nc3cc(Cl)ccn3)n2)cn1` [Example 97, Methyl 1-{6-[(4-chloropyridin-2-yl)amino]-4-methylpyridin-2-yl}-1H-imidazole-4-carboxylate]: the IC50 (read-out: rhSYK Activity) was at most 100 nM.

With `COC(=O)c1cn(-c2cc(C)cc(Nc3nccc(C(F)(F)F)n3)c2)cn1` [Example 98, Methyl 1-(3-methyl-5-{[4-(trifluoromethyl)-pyrimidin-2-yl]amino}phenyl)-1H-imidazole-4-carboxylate], for the setting “read-out: rhSYK Activity”, the IC50 was at most 100 nM.

`Cc1cc(Nc2nccc(C(F)(F)F)n2)cc(-n2cnc(C(C)(C)O)c2)c1` [Example 99, 2-[1-(3-methyl-5-{[4-(trifluoromethyl)pyrimidin-2-yl]amino}phenyl)-1H-imidazol-4-yl]propan-2-ol]: the IC50 (read-out: rhSYK Activity) was at most 100 nM.

Turning to `Cc1ccnc(Nc2cccc(-n3cnc(C(C)(C)O)c3)n2)c1` [Example 100, 2-(1-{6-[(4-methylpyridin-2-yl)amino]pyridin-2-yl}-1H-imidazol-4-yl)propan-2-ol], where the note is “read-out: rhSYK Activity”, the IC50 is 100 to 1000 nM.

As to `CC(C)(O)c1cn(-c2cccc(Nc3cc(Cl)ccn3)n2)cn1` [Example 101, 2-(1-{6-[(4-chloropyridin-2-yl)amino]pyridin-2-yl}-1H-imidazol-4-yl)propan-2-ol], the IC50 (read-out: rhSYK Activity) was at most 100 nM.

As for `COC(=O)c1cn(-c2cccc(Nc3cc(C)ccn3)n2)cn1` [Example 102, Methyl 1-{6-[(4-methylpyridin-2-yl)amino]pyridin-2-yl}-1H-imidazole-4-carboxylate], where the note is “read-out: rhSYK Activity”, the IC50 lay in the range of 100 to 1000 nM.

For `CC(C)NC(=O)c1cn(-c2cccc(Nc3nccc(C(F)(F)F)n3)c2)cn1` [Example 103, N-(1-methylethyl)-1-(3-{[4-(trifluoromethyl)pyrimidin-2-yl]amino}phenyl)-1H-imidazole-4-carboxamide], the IC50 (read-out: rhSYK Activity) was in the range of 100 to 1000 nM.

As for `CC(C)(O)c1cn(-c2cccc(Nc3nccc(C(F)(F)F)n3)c2)cn1` [Example 104, 2-[1-(3-{[4-(trifluoromethyl)pyrimidin-2-yl]amino}-phenyl)-1H-imidazol-4-yl]propan-2-ol], for the setting “read-out: rhSYK Activity”, the IC50 is 100 to 1000 nM.
